This is an account of results in publication PMC13489962, “Small-molecule modulation of β-arrestins” (Nature, 2026).

The target in assay [1] is T1, βARR1 E134A (Rattus norvegicus, UniProt P29066, E134A).
T1 construct: βARR1 or βARR2 construct, with their C terminus truncated (at amino acid 393 or 394, respectively); GST (pGEX4T1) (N, cleaved yes); made in house; host or cells: E. coli BL21 (DE3) pLysS
As to the kind of experiment: ITC binding to βARR1 mutant E134A. The conditions noted are these: 25 °C. The procedure:
(§1) The expression and purification of β-arrestins have been described previously[44],[62]–[64]. In brief, E. coli BL21 (DE3) pLysS cells (New England Biolabs: C2527I) carrying pGEX4T1-Rattus norvegicus βARR1 or βARR2 construct, with their C terminus truncated (at amino acid 393 or 394, respectively), were cultured in Terrific Broth (Teknova) medium at 37 °C. After OD600 reached 0.6–0.8, the cells were induced with 0.1 mM isopropyl-β-D-thiogalactopyranoside (IPTG) at 18 °C overnight. Bacteria were collected by centrifugation (4,000 rpm), and cell pellets were resuspended in lysis buffer (20 mM HEPES, pH 8, 150 mM NaCl, 10% glycerol, 1 mM EDTA, 0.2 mM dithiothreitol (DTT), 1 mM phenylmethylsulfonyl fluoride, and 1 mM benzamidine) at 4 °C for 1 h. […] Eluted fractions were analysed by SDS–PAGE, pooled, concentrated using 30 kDa MWCO Amicon Ultra-15 Centrifugal Filter devices, flash-frozen in liquid nitrogen, and stored in aliquots at −80 °C. […] Protein concentrations for each protein were determined by ultraviolet absorption at 280 nm and extinction coefficients estimated using the ExPASy ProtParam tool[67].
(§2) ITC measurements were performed on a MicroCal iTC200 system at 25 °C. […] Protein concentrations were determined by spectrophotometry at 280 nm, using extinction coefficients calculated from each protein sequence via the ProtParam program. […]

For assay [2], the target named is T2, βARR1 K138A (Rattus norvegicus, UniProt P29066, K138A).
T2 construct: βARR1 or βARR2 construct, with their C terminus truncated (at amino acid 393 or 394, respectively); GST (pGEX4T1) (N, cleaved yes); made in house; host or cells: E. coli BL21 (DE3) pLysS
T2 sequence (P29066 1-393 K138A): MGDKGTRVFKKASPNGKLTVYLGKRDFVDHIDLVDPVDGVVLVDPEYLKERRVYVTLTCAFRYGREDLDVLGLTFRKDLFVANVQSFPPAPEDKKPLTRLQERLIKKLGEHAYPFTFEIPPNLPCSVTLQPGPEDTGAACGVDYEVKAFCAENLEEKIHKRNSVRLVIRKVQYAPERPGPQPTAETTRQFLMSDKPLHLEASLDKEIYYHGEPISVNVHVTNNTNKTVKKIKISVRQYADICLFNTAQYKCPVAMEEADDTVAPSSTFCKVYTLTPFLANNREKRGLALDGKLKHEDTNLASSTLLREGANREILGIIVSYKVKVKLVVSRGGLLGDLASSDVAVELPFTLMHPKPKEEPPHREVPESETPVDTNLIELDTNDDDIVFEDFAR
As to the kind of experiment: ITC binding to βARR1 mutant K138A. The conditions noted are these: 25 °C. The procedure:
as §1, §2

Assay [3] concerns the target T3, βARR1 Y249A (Rattus norvegicus, UniProt P29066, Y249A).
T3 construct: βARR1 or βARR2 construct, with their C terminus truncated (at amino acid 393 or 394, respectively); GST (pGEX4T1) (N, cleaved yes); made in house; host or cells: E. coli BL21 (DE3) pLysS
Briefly: ITC binding to βARR1 mutant Y249A. The procedure:
as §1, §2

For assay [4], the system named is βARR2 conformation (AT1R). Briefly: Intramolecular FlAsH-BRET βARR2 conformational sensors. The format is cell-based, human. The following applies: 50 μM, 15 min; AngII 10 μM. The procedure: Intramolecular FlAsH-BRET assays[72] were performed in HEK293 βARR1/2-knockout cells transiently transfected using FuGENE4K with 2 μg total DNA per 15 cm dish. Cells were transfected with 1.5 μg of pcDNA3.1 encoding human AT1R and 0.4 μg of a plasmid encoding the indicated RLuc–β-arrestin2–FlAsH biosensors. Twenty-four hours after transfection, cells were replated into poly-D-lysine-coated 96-well white, clear-bottom plates at 100,000 cells per well in MEM supplemented with 10% FBS. Forty-eight hours after transfection, cells were labelled with FlAsH-EDT2 (FlAsH II In-Cell Tetracysteine Detection Kit, Thermo Fisher) at a final concentration of 2.5 μM for 30 min at room temperature. Following labelling, cells were washed twice with BAL wash buffer (250 μM 2,3-dimercapto-1-propanol in HBSS), then equilibrated in HBSS supplemented with 20 mM HEPES (pH 7.4). Modulators were applied at 50 μM for 15 min, followed by addition of Prolume Purple substrate (Nanolight Technologies). Cells were then stimulated with 10 μM angiotensin II. BRET signals were recorded using a CLARIOstar Plus plate reader in kinetic mode (480 nm donor, 530 nm acceptor) for 30 min, and peak values were used for quantification. ΔNet BRET was calculated by subtracting baseline values from each condition, including agonist alone, modulator alone, or agonist plus modulator.
(In general: Bioluminescence resonance energy transfer reports proximity on the nanometre scale.)

T3 sequence (P29066 1-393 Y249A): as the sequence (P29066 1-393 K138A) above, with A138K, Y249A counted along it
T1 sequence (P29066 1-393 E134A): as the sequence (P29066 1-393 K138A) above, with E134A, A138K counted along it

With `C=C1C(=O)[C@]23[C@H](O)[C@H]1CC[C@H]2[C@@]12CO[C@]3(O)[C@@H](O)[C@@H]1C(C)(C)CC[C@@H]2O` [Cmpd-5, (1S,4aR,5S,6S,6aR,9S,11aS,11bS,14R)-1,5,6,14-tetrahydroxy−4,4-dimethyl-8-methylenedecahydro-1H-6,11b-(epoxymethano)-6a,9-methanocyclohepta[a]naphthalen-7(8H)-one], the Kd was found to be 2200 ± 500 nM in assay [1], 1000 ± 300 nM in assay [2] and 3800 ± 900 nM in assay [3] (25 °C). Moreover, in assay [1], the “ΔH, βARR1 E134A” value is -1.2 kcal/mol. Besides, the “Kd fold over WT, βARR1 Y249A” value in assay [3] worked out at 10.6 fold. The “effect on AngII-induced active βarr2 FlAsH-BRET signature” value in assay [4] is reported as “largely attenuates this active signature”.

One may read the Kd as the equilibrium constant for the complex coming apart. Low values mean a tighter complex, high ones a looser complex.
